ChEMBL document CHEMBL3045494, “Inhibitory effect and structureactivity relationship of some Biginelli-type pyrimidines against HSV-1” (Med Chem Res, 2013)
Activity calls are given as the source filed them. The calls are words filed in the database; no cut-off is given here.

How the values were obtained:
Human alphaherpesvirus 1 [1] = assay: Antiviral activity against Human herpesvirus 1 strain KOS infected Vero cells at 20 umol/L incubated at 4 hr post-infection measured after 68 hr by plaque reduction assay; type: functional, organism-based
Human alphaherpesvirus 1 [2] = assay: Antiviral activity against Human herpesvirus 1 strain KOS infected Vero cells at 20 umol/L incubated at 2 hr post-infection measured after 70 hr by plaque reduction assay; type: functional, organism-based
[3] = Therapeutic index, ratio of CC50 for African green monkey Vero cells to IC50 for Herpes simplex virus 1 KOS; type: cell-based; conditions: read-out: Ratio CC50/IC50
Vero = assay: (§1) Cytotoxicity against Chlorocebus aethiops (African green monkey) Vero cells after 72 hr by XTT assay; type: cell-based; conditions: chlorocebus sabaeus, vero, 72 h
[4] = as §1; type: cell-based; conditions: chlorocebus sabaeus, Vero cells
Human alphaherpesvirus 1 [5] = assay: Antiviral activity against Human herpesvirus 1 strain KOS infected Vero cells at 20 umol/L incubated immediately after infection for 72 hr by plaque reduction assay; type: functional, organism-based
Human alphaherpesvirus 1 [6] = assay: Antiviral activity against Human herpesvirus 1 strain KOS infected Vero cells after 72 hr by plaque reduction assay; type: functional, organism-based
[7] = Selectivity index, ratio of CC25 for African green monkey Vero cells to IC25 for Herpes simplex virus 1 KOS; type: toxicity, cell-based; conditions: read-out: Selectivity Index
Human alphaherpesvirus 1 [8] = assay: Antiviral activity against Human herpesvirus 1 strain KOS infected Vero cells at 20 umol/L incubated for 4 hr prior to infection measured after 72 hr by plaque reduction assay; type: functional, organism-based
Human alphaherpesvirus 1 [9] = assay: Antiviral activity against Human herpesvirus 1 strain KOS infected Vero cells at 20 umol/L incubated for 2 hr prior to infection measured after 72 hr by plaque reduction assay; type: functional, organism-based

Row | IC50 (Human alphaherpesvirus 1 [6]; Human alphaherpesvirus 1, KOS, Vero, 72 h, read-out: IC50) | IC50 (Human alphaherpesvirus 1 [6]; vero) | SMILES | Activity (Human alphaherpesvirus 1 [1]) | Activity (Human alphaherpesvirus 1 [2]) | selectivity ratio [3] | CC25 (Vero) | CC50 at 72 h [4] | Activity (Human alphaherpesvirus 1 [5]) | IC25 (Human alphaherpesvirus 1 [6]; Human alphaherpesvirus 1, KOS, Vero, 72 h) | selectivity ratio [7] | Activity (Human alphaherpesvirus 1 [8]) | Activity (Human alphaherpesvirus 1 [9]) | IC25 (Human alphaherpesvirus 1 [6])
1 | 0.9 µM | – | COC(=O)C1=C(C)NC(=O)NC1c1ccc(Br)cc1 (configuration not stated) | Active | Active | 111 | 12.3 µM | 100 µM | inactive | 0.1 µM | 123 | inactive | inactive | –
2 | – | Not Active | CC1=C(C(=O)Nc2cccc(Cl)c2)C(c2cccs2)NC(=O)N1 (configuration not stated) | – | – | < 1 | 87.9 µM | > 100 µM | – | – | < 1 | – | – | inactive
